In US10364245B2 (CHIESI FARMACEUTICI S.p.A., priority 2017, dated 2019):
Counter-ions that a name gives are not always drawn.

Tests used:
[1] = test system: Peripheral Blood Mononuclear Cells (PBMCs), TNFα release; assay: LPS-stimulated PBMC TNFα release assay; format: cell-based; settings: human PBMC, LPS (10 ng/ml), 18 h, compound 1 h before LPS; read-out: LPS-stimulated PBMC TNFα release inhibition
Protocol: LPS-Stimulated PBMC TNFα Release Assay
Peripheral Blood Mononuclear Cells (PBMCs) were isolated from healthy human volunteer blood using a standard density gradient centrifugation technique. Citrated blood was placed onto Histopaque™ and centrifuged. The PBMCs were removed from the density gradient interface and washed in phosphate buffered saline (PBS). The PBMCs were suspended in RPMI 1640 medium (without serum), dispensed into a 96-well plate and incubated at 37° C. for 3 h in a humidified incubator. After incubation, the medium was replaced (with medium containing 1% foetal bovine serum) and the plate incubated at 37° C., for 1 h, in the presence of test compound or the appropriate vehicle. LPS (10 ng/ml), or an appropriate vehicle control, was then added to the cells and the plate returned to the incubator for 18 h. Cell-free supernatants were removed and assayed for TNFα levels using MSD plates on the Sector Imager 6000 (MesoScale).
A dose response curve to each test compound was performed and the effect of compound in each experiment was expressed as a percentage inhibition of the control TNFα release. Dose response curves were plotted and compound potency (IC50) was determined. Compounds were tested in at least three separate experiments.

p38 alpha = molecular target: T1, p38 alpha (Homo sapiens, UniProt Q16539); assay: P38 alpha enzyme inhibition assay (Alphascreen kinase activity assay); format: biochemical; settings: 100 pM p38 alpha, 2 hours preincubation at 25° C., 250 μM ATP, ATF-2 fusion protein; read-out: p38α inhibition
T1 construct: purchased Invitrogen PV3304
Summary of the method: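 100 pM p38 alpha preincubated 2 h at 25 °C with compound and 0.3 μg/ml ATF-2 fusion substrate (HEPES pH 7.5, MgCl2, 1% DMSO). Reaction started with 250 μM ATP, run 1 h at 25 °C, stopped with EDTA; phospho-ATF2 detected by AlphaScreen luminescence. IC50 from concentration-response curves.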

T1 sequence (Q16539 whole entry, the tested form may be a part): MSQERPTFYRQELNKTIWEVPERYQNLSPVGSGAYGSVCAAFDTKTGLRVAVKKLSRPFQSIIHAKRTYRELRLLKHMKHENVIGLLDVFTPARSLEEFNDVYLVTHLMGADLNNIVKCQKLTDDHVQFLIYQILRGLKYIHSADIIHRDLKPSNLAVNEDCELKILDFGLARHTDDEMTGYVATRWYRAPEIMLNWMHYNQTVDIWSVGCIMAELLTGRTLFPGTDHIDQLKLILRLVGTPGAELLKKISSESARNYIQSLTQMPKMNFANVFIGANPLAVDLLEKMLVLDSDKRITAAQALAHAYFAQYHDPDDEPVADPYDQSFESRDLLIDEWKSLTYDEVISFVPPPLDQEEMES

CN(C)CCNC(=O)c1cc(NC(=O)N[C@H]2CC[C@@H](Oc3ccc4nnc(C(C)(C)N5CCN(C)CC5)n4c3)c3ccccc32)cc(C(C)(C)C)n1 [Example 199, 6-(tert-Butyl)-N-(2-(dimethylamino)ethyl)-4-(3-((1S,4R)-4-((3-(2-(4-methylpiperazin-1-yl)propan-2-yl)-[1,2,4]triazolo[4,3-a]pyridin-6-yl)oxy)-1,2,3,4-tetrahydronaphthalen-1-yl)ureido)picolinamide formate salt] was tested, and the IC50 [1] was > 5 nM and the IC50 (p38 alpha) was 1 to 10 nM.

COCCN(C)CCNC(=O)c1cc(NC(=O)N[C@H]2CC[C@@H](Oc3ccc4nnc(C(C)(C)C)n4c3)c3ccccc32)cc(C(C)(C)C)n1 [Example 192, 6-(tert-butyl)-4-(3-((1S,4R)-4-((3-(tert-butyl)-[1,2,4]triazolo[4,3-a]pyridin-6-yl)oxy)-1,2,3,4-tetrahydronaphthalen-1-yl)ureido)-N-(2-((2-methoxyethyl)(methyl)-amino)ethyl)picolinamide] gave an IC50 [1] of 1 to 5 nM and an IC50 (p38 alpha) of 1 to 10 nM.

COCC(C)(C)c1nnc2ccc(O[C@@H]3CC[C@H](NC(=O)Nc4cc(C(C)(C)C)nc(C(=O)NCC(C)(C)N(C)C)n4)c4ccccc43)cn12 [Example 7, 4-(tert-Butyl)-N-(2-(dimethylamino)-2-methylpropyl)-6-(3-((1S,4R)-4-((3-(1-methoxy-2-methylpropan-2-yl)-[1,2,4]triazolo[4,3-a]pyridin-6-yl)oxy)-1,2,3,4-tetrahydronaphthalen-1-yl)ureido)pyrimidine-2-carboxamide] was tested, and the IC50 [1] was 1 to 5 nM and the IC50 (p38 alpha) was < 1 nM.

With CN1CC(NC(=O)c2nc(NC(=O)N[C@H]3CC[C@@H](Oc4ccc5nnc(C(C)(C)C)n5c4)c4ccccc43)cc(C(C)(C)C)n2)C1 [Example 81, 4-(tert-butyl)-6-(3-((1S,4R)-4-((3-(tert-butyl)-[1,2,4]triazolo[4,3-a]pyridin-6-yl)oxy)-1,2,3,4-tetrahydronaphthalen-1-yl)ureido)-N-(1-methylazetidin-3-yl)pyrimidine-2-carboxamide] the IC50 [1] was > 5 nM and the IC50 (p38 alpha) was < 1 nM.

With CN1CCN(C(C)(C)c2nnc3ccc(O[C@@H]4CC[C@H](NC(=O)Nc5cc(C(C)(C)C)nc(CO)n5)c5ccccc54)cn23)CC1 [Example 23, 1-(6-(tert-Butyl)-2-(hydroxymethyl)pyrimidin-4-yl)-3-((1S,4R)-4-((3-(2-(4-methylpiperazin-1-yl)propan-2-yl)-[1,2,4]triazolo[4,3-a]pyridin-6-yl)oxy)-1,2,3,4-tetrahydronaphthalen-1-yl)urea] the IC50 [1] was > 5 nM and the IC50 (p38 alpha) was 1 to 10 nM.

With CC[C@H](C)c1nnc2ccc(O[C@@H]3CC[C@H](NC(=O)Nc4cc(C(C)(C)C)nc(C(=O)NCCN5CCOCC5)n4)c4ccccc43)cn12 [Example 102, 4-(tert-butyl)-6-(3-((1S,4R)-4-((3-((S)-sec-butyl)-[1,2,4]triazolo[4,3-a]pyridin-6-yl)oxy)-1,2,3,4-tetrahydronaphthalen-1-yl)ureido)-N-(2-morpholinoethyl)-pyrimidine-2-carboxamide] the IC50 [1] was > 5 nM and the IC50 (p38 alpha) was < 1 nM.

For COC(C)(C)c1nnc2ccc(O[C@@H]3CC[C@H](NC(=O)Nc4cc(C(C)(C)C)nc(C(=O)NCCCN5CCOCC5)n4)c4ccccc43)cn12 [Example 124], the IC50 [1] was 1 to 5 nM and the IC50 (p38 alpha) was 1 to 10 nM.

For CC(C)(C)c1cc(NC(=O)N[C@H]2CC[C@@H](Oc3ccc4nnc(C(C)(C)C)n4c3)c3ccccc32)nc(C(=O)NCCN2CCC2)n1 [Example 140, N-(2-(azetidin-1-yl)ethyl)-4-(tert-butyl)-6-(3-((1S,4R)-4-((3-(tert-butyl)-[1,2,4]triazolo[4,3-a]pyridin-6-yl)oxy)-1,2,3,4-tetrahydronaphthalen-1-yl)ureido)pyrimidine-2-carboxamide], the IC50 [1] was > 5 nM and the IC50 (p38 alpha) was < 1 nM.

With CCN(C)C(C)(C)CNC(=O)c1nc(NC(=O)N[C@H]2CC[C@@H](Oc3ccc4nnc(C(C)(C)COC)n4c3)c3ccccc32)cc(C(C)(C)C)n1 [Example 152, 4-(tert-butyl)-N-(2-(ethyl(methyl)amino)-2-methylpropyl)-6-(3-((1S,4R)-4-((3-(1-methoxy-2-methylpropan-2-yl)-[1,2,4]triazolo[4,3-a]pyridin-6-yl)oxy)-1,2,3,4-tetrahydronaphthalen-1-yl)ureido)pyrimidine-2-carboxamide] the IC50 [1] was > 5 nM and the IC50 (p38 alpha) was < 1 nM.

In the case of CC(C)N1CCC[C@H]1c1nnc2ccc(O[C@@H]3CC[C@H](NC(=O)Nc4cc(C(C)(C)C)ncn4)c4ccccc43)cn12 [Example 47, 1-(6-(tert-Butyl)pyrimidin-4-yl)-3-((1S,4R)-4-((3-((S)-1-isopropylpyrrolidin-2-yl)-[1,2,4]triazolo[4,3-a]pyridine-6-yl)oxy)-1,2,3,4-tetrahydronaphthalene-1-yl)urea Hydrochloride], the IC50 [1] is reported as > 5 nM and the IC50 (p38 alpha) is reported as < 1 nM.

For C[C@@H]1CCC[C@H](C)N1c1nnc2ccc(O[C@@H]3CC[C@H](NC(=O)Nc4cc(C(C)(C)C)nc(C(=O)NCCN5CCOCC5)n4)c4ccccc43)cn12 [Example 18, 4-(tert-Butyl)-6-(3-((1S,4R)-4-((3-((2R,6S)-2,6-dimethylpiperidin-1-yl)-[1,2,4]triazolo[4,3-a]pyridin-6-yl)oxy)-1,2,3,4-tetrahydronaphthalen-1-yl)ureido)-N-(2-morpholinoethyl)pyrimidine-2-carboxamide], the IC50 [1] was 1 to 5 nM and the IC50 (p38 alpha) was < 1 nM.

CCC(C)(C)c1nnc2ccc(O[C@@H]3CC[C@H](NC(=O)Nc4cc(C(C)(C)C)nc(C(=O)NCCCN5CCOCC5)n4)c4ccccc43)cn12 [Example 132, 4-(tert-butyl)-N-(3-morpholinopropyl)-6-(3-((1S,4R)-4-((3-(tert-pentyl)-[1,2,4]triazolo[4,3-a]pyridin-6-yl)oxy)-1,2,3,4-tetrahydronaphthalen-1-yl)ureido)pyrimidine-2-carboxamide] was tested, and the IC50 [1] was 1 to 5 nM and the IC50 (p38 alpha) was < 1 nM.

With CC(C)(C)c1cc(NC(=O)N[C@H]2CC[C@@H](Oc3ccc4nnc(C(C)(C)C)n4c3)c3ccccc32)cc(C(=O)NCCCN2CCOCC2)n1 [Example 187, 6-(tert-butyl)-4-(3-((1S,4R)-4-((3-(tert-butyl)-[1,2,4]triazolo[4,3-a]pyridin-6-yl)oxy)-1,2,3,4-tetrahydronaphthalen-1-yl)ureido)-N-(3-morpholinopropyl)-picolinamide] the IC50 [1] was 1 to 5 nM and the IC50 (p38 alpha) was 1 to 10 nM.

For CN(CCNC(=O)c1nc(NC(=O)N[C@H]2CC[C@@H](Oc3ccc4nnc(C(C)(C)C)n4c3)c3ccccc32)cc(C(C)(C)C)n1)C1COC1 [Example 107, 4-(tert-butyl)-6-(3-((1S,4R)-4-((3-(tert-butyl)-[1,2,4]triazolo[4,3-a]pyridin-6-yl)oxy)-1,2,3,4-tetrahydronaphthalen-1-yl)ureido)-N-(2-(methyl(oxetan-3-yl)amino)ethyl)-pyrimidine-2-carboxamide], the IC50 [1] was > 5 nM and the IC50 (p38 alpha) was < 1 nM.

COCCN(C)CCNC(=O)c1nc(NC(=O)N[C@H]2CC[C@@H](Oc3ccc4nnc(C(C)C)n4c3)c3ccccc32)cc(C(C)(C)C)n1 [Example 70, 4-(tert-butyl)-6-(3-((1S,4R)-4-((3-isopropyl-[1,2,4]triazolo[4,3-a]pyridin-6-yl)oxy)-1,2,3,4-tetrahydronaphthalen-1-yl)ureido)-N-(2-((2-methoxyethyl)(methyl)amino)ethyl)pyrimidine-2-carboxamide] was tested, and the IC50 [1] was > 5 nM and the IC50 (p38 alpha) was 1 to 10 nM.

With CC(C)(C)c1cc(NC(=O)N[C@H]2CC[C@@H](Oc3ccc4nnc(C(C)(C)C)n4c3)c3ccccc32)cc(C(=O)NCCN2CCC(O)CC2)n1 [Example 9, 6-(tert-Butyl)-4-(3-((1S,4R)-4-((3-(tert-butyl)-[1,2,4]triazolo[4,3-a]pyridin-6-yl)oxy]-1,2,3,4-tetrahydronaphthalen-1-yl}ureido)-N-(2-(4-hydroxypiperidin-1-yl)ethyl)picolinamide] the IC50 [1] was 1 to 5 nM and the IC50 (p38 alpha) was < 1 nM.

In the case of CCC(CC)c1nnc2ccc(O[C@@H]3CC[C@H](NC(=O)Nc4cc(C(C)(C)C)nc(C(=O)NC5CN(C)C5)n4)c4ccccc43)cn12 [Example 84, 4-(tert-butyl)-N-(1-methylazetidin-3-yl)-6-(3-((1S,4R)-4-((3-(pentan-3-yl)-[1,2,4]triazolo[4,3-a]pyridin-6-yl)oxy)-1,2,3,4-tetrahydronaphthalen-1-yl)ureido)pyrimidine-2-carboxamide], the IC50 [1] is reported as > 5 nM and the IC50 (p38 alpha) is reported as < 1 nM.

In the case of CO[C@@H](C)c1nnc2ccc(O[C@@H]3CC[C@H](NC(=O)Nc4cc(C(C)(C)C)nc(C(=O)NCCN(C)C)n4)c4ccccc43)cn12 [Example 56, 4-(tert-Butyl)-N-(2-(dimethylamino)ethyl)-6-(3-((1S,4R)-4-((3-((S)-1-methoxyethyl)-[1,2,4]triazolo[4,3-a]pyridin-6-yl)oxy)-1,2,3,4-tetrahydronaphthalene-1-yl)ureido)pyrimidin-2-carboxamide], the IC50 [1] is reported as > 5 nM and the IC50 (p38 alpha) is reported as 1 to 10 nM.
